The numbers were not newly measured in patent US11678683B2, “Processed edible product comprising a polyelectrolyte complex and an antimicrobial compound” (Ceradis B.V., priority 2013, dated 2023), which cites them from elsewhere.

In series [1] the test system is most fungi.
For series [2] the following is noted: neutral aqueous systems.

As for `C[C@@H]1C/C=C/C=C/C=C/C=C/[C@H](O[C@@H]2O[C@H](C)[C@@H](O)[C@H](N)[C@@H]2O)C[C@@H]2O[C@](O)(C[C@@H](O)C[C@H]3O[C@@H]3/C=C/C(=O)O1)C[C@H](O)[C@H]2C(=O)O` [Natamycin, natamycin], in series [1], the “MIC (Minimal Inhibitory Concentration)” value is recorded as “less than 10 ppm”. For the same compound, the Solubility in series [2] is recorded as 30-40 ppm.
